Results: patent publication US9000175B2, “Bicyclic GPR119 modulators” (Lupin Limited, priority 2010, dated 2015)
Where “and” joins values, the source holds several entries; their conditions need not be identical. Equal values may be shown once.

Biological target: T1, human GPR119 (Homo sapiens, UniProt Q8TDV5)
T1 construct: expressed in transfected cells
T1 sequence (Q8TDV5 1-335): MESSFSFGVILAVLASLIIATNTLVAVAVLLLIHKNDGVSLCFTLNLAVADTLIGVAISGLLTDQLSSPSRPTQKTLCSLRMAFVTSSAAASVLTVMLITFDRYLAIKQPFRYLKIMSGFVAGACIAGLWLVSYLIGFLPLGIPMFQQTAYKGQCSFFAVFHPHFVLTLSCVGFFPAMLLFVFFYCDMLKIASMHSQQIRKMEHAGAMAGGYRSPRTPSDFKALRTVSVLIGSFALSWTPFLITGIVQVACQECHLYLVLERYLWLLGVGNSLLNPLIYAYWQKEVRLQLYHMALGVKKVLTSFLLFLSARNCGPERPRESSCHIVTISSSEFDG
Test: Cyclic AMP assay in stable cell line
Format: cell-based
Conditions: CHO-K1 cells stably transfected with human GPR119; cAMP levels (FRET, cAMP femto kit); 1 h at 37° C; read-out: EC50 Range
Experimental: Cyclic AMP Assay in Stable Cell Line:
Chinese Hamster Ovary (CHO-K1) cells were stably transfected with human GPR119 and were maintained in Ham's F-12 complete medium containing 10% heat inactivated FBS (Sigma, UK). The cells were maintained under a selection pressure with 500 μg/ml G418 (GENETICIN). Stable clones were analyzed for functional cAMP response to OEA (oleoylethanolamide).
To estimate activation of GPR119 and induction of cAMP levels by GPR119 agonists, cells were serum starvation for 18-24 h, trypsinized and seeded in 96 well plates at a, density of 7500 cells/well. The cells were then treated with test compounds diluted in serum free Ham's F12 for 1 h at 37° C. The cAMP levels were measured by using the cAMP femto kit (CisBio) by following the manufacturer's instructions. Following treatment with a test compound, the cells were lysed and cAMP levels were estimated by adding D2-labelled cAMP and europium-cryptate conjugated anti-cAMP antibody. Close proximity of D2 and cryptate results in FRET and the subsequent fluorescence that is measured at 665 and 620 nm. The FRET response is calculated as the ratio of fluorescence at 665 to fluorescence at 620 nm. The unlabelled cAMP produced as a result of GPR119 activation/agonism competes with the D2-cAMP leading to a decrease in the FRET signal. Thus the FRET signal is inversely proportional to the amount of cAMP produced by the treated cells. In a separate set of wells, known concentrations of cAMP were added in order to get a standard linear curve for extrapolation of the cAMP values in the unknown/test samples. Fluorescence was measured on BMG Labtech PHERAstar machine.
The concentration of compound required to stimulate a half-maximal response (EC50) was determined using the GraphPad Prism software.
The compounds prepared were tested using the above assay procedure and the results obtained are given below.

SMILES | EC50
CCS(=O)(=O)c1ccc2c(ccn2-c2ccc(OC3CCN(CC(C)(C)O)CC3)cn2)c1 [Example-13, 1-(4-((6-(5-(Ethylsulfonyl)-1H-indol-1-yl)pyridin-3-yl)oxy)piperidin-1-yl)-2-methylpropan-2-ol] | 50 to 250 nM
Cc1noc(N2CCC(Oc3ccc(-n4ccc5cc(S(=O)(=O)C(C)C)ccc54)nc3)CC2)n1 [Example-18, 5-(4-((6-(5-(Isopropylsulfonyl)-1H-indol-1-yl)pyridin-3-yl)oxy)piperidin-1-yl)-3-methyl-1,2,4-oxadiazole] | 50 to 250 nM
CC(C)CN1CCC(Oc2ccc(-n3ccc4cc(S(C)(=O)=O)ccc43)nc2)CC1 [Example-30, 1-(5-((1-Isobutylpiperidin-4-yl)oxy)pyridin-2-yl)-5-(methylsulfonyl)-1H-indole] | < 50 nM and 50 to 250 nM
CC(C)(C)CN1CCC(Oc2ccc(-n3ccc4cc(S(C)(=O)=O)ccc43)nc2)CC1 [Example-35, 5-(Methylsulfonyl)-1-(5-((1-neopentylpiperidin-4-yl)oxy)pyridin-2-yl)-1H-indole] | < 50 nM
CN(C)C(=O)c1ccc2c(ccn2-c2ccc(OC3CCN(C(=O)OC(C)(C)C)CC3)cn2)c1 [Example-39, tert-Butyl-4-((6-(5-(dimethylcarbamoyl)-1H-indol-1-yl)pyridin-3-yl)oxy) piperidine-1-carboxylate] | < 50 nM
CCc1cnc(N2CCC(Oc3ccc(-n4ccc5cc(C(=O)N(C)C)ccc54)nc3)CC2)nc1 [Example-40, 1-(5-((1-(5-Ethylpyrimidin-2-yl)piperidin-4-yl)oxy)pyridin-2-yl)-N,N-dimethyl-1H-indole-5-carboxamide] | < 50 nM
CCc1cnc(N2CCC(OCc3ccc(-n4ccc5cc(S(C)(=O)=O)ccc54)nc3)CC2)nc1 [Example-42, 1-(5-(((1-(5-Ethylpyrimidin-2-yl)piperidin-4-yl)oxy)methyl)pyridin-2-yl)-5-(methylsulfonyl)-1H-indole] | 50 to 250 nM
CN(C)C(=O)c1ccc2c(ccn2-c2ccc(OCC3CCN(C(=O)OC(C)(C)C)CC3)cn2)c1 [Example-45, tert-butyl 4-(((6-(5-(dimethylcarbamoyl)-1H-indol-1-yl)pyridin-3-yl)oxy)methyl)piperidine-1-carboxylate] | < 50 nM and 50 to 250 nM
CC(C)(C)OC(=O)N1CCC(OCc2ccc(N3CCc4cc(S(C)(=O)=O)ccc43)nc2)CC1 [Example-46, tert-Butyl-4-((6-(5-(methylsulfonyl)indolin-1-yl)pyridin-3-yl)methoxy) piperidine-1-carboxylate] | < 50 nM
CC(C)(C)OC(=O)N1CC2COCC(C1)C2Oc1ccc(-n2ccc3cc(S(C)(=O)=O)ccc32)nc1 (stereo not drawn) [Example-48, (syn)-tert-Butyl-9-((6-(5-(methylsulfonyl)-1H-indol-1-yl)pyridin-3-yl)oxy)-3-oxa-7-azabicyclo[3.3.1]nonane-7-carboxylate] | 50 to 250 nM
CC(C)(C)OC(=O)N1CC2COCC(C1)C2Oc1ccc(-n2ccc3cc(S(C)(=O)=O)ccc32)nc1 (stereo not drawn) [Example-49, (anti) tert-Butyl-9-((6-(5-(methylsulfonyl)-1H-indol-1-yl)pyridin-3-yl)oxy)-3-oxa-7-azabicyclo[3.3.1]nonane-7-carboxylate] | < 50 nM
CCc1cnc(N2CC3COCC(C2)C3Oc2ccc(-n3ccc4cc(S(C)(=O)=O)ccc43)nc2)nc1 (stereo not drawn) [Example-51, anti 7-(5-Ethylpyrimidin-2-yl)-9-((6-(5-(methylsulfonyl)-1H-indol-1-yl)pyridin-3-yl)oxy)-3-oxa-7-azabicyclo[3.3.1]nonane] | < 50 nM
CCc1cnc(N2CCC(Oc3ccc(-n4ccc5cc(C(=O)NC6CC6)ccc54)nc3)CC2)nc1 [Example-54, N-Cyclopropyl-1-(5-((1-(5-ethylpyrimidin-2-yl)piperidin-4-yl)oxy)pyridin-2-yl)-1H-indole-5-carboxamide] | < 50 nM
CC(C)C(=O)Nc1ccc2c(ccn2-c2ccc(OC3CCN(C(=O)OC(C)(C)C)CC3)cn2)c1 [Example-56, tert-Butyl-4-((6-(5-isobutyramido-1H-indol-1-yl)pyridin-3-yl)oxy)-piperidine-1-carboxylate] | < 50 nM
CC(C)C(=O)Nc1ccc2c(ccn2-c2ccc(OC3CCN(c4nc(C(C)C)no4)CC3)cn2)c1 [Example-57, N-(1-(5-((1-(3-Isopropyl-1,2,4-oxadiazol-5-yl)piperidin-4-yl)oxy)pyridin-2-yl)-1H-indol-5-yl)isobutyramide] | < 50 nM
CCc1cnc(N2CCC(Oc3ccc(-n4ccc5cc(C#N)ccc54)nc3)CC2)nc1 [Example-58, 1-(5-((1-(5-Ethylpyrimidin-2-yl)piperidin-4-yl)oxy)pyridin-2-yl)-1H-indole-5-carbonitrile] | 250 to 1000 nM
CC(C)NC(=O)c1ccc2c(ccn2-c2ccc(OC3CCN(C(=O)OC(C)(C)C)CC3)cn2)c1 [Example-62, tert-Butyl-4-((6-(5-(isopropylcarbamoyl)-1H-indol-1-yl)pyridin-3-yl)oxy) piperidine-1-carboxylate] | 50 to 250 nM
CNC(=O)c1ccc2c(ccn2-c2ccc(OCC3CCN(C(=O)OC(C)(C)C)CC3)cn2)c1 [Example-66, tert-Butyl-4-(((6-(5-(methylcarbamoyl)-1H-indol-1-yl)pyridin-3-yl)-oxy)methyl)piperidine-1-carboxylate] | 50 to 250 nM
CCc1cnc(N2CCC(COc3ccc(-n4ccc5cc(C(=O)NC)ccc54)nc3)CC2)nc1 [Example-67, 1-(5-((1-(5-Ethylpyrimidin-2-yl)piperidin-4-yl)methoxy)pyridin-2-yl)-N-methyl-1H-indole-5-carboxamide] | 50 to 250 nM

Further lines, results first:

EC50 | SMILES
< 50 nM | CC(C)(C)OC(=O)N1CCC(Oc2ccc(-n3ccc4cc(S(C)(=O)=O)ccc43)nc2)CC1 [Example-1, tert-Butyl-4-((6-(5-(methylsulfonyl)-1H-indol-1-yl)pyridin-3-yl)oxy) piperidine-1-carboxylate]
< 50 nM | CCc1cnc(N2CCC(Oc3ccc(-n4ccc5cc(S(C)(=O)=O)ccc54)nc3)CC2)nc1 [Example-2, 1-(5-((1-(5-Ethylpyrimidin-2-yl)piperidin-4-yl)oxy)pyridin-2-yl)-5-(methylsulfonyl)-1H-indole]
< 50 nM | CC(C)c1noc(N2CCC(Oc3ccc(-n4ccc5cc(S(C)(=O)=O)ccc54)nc3)CC2)n1 [Example-4, 3-Isopropyl-5-(4-((6-(5-(methylsulfonyl)-1H-indol-1-yl)pyridin-3-yl)oxy)piperidin-1-yl)-1,2,4-oxadiazole]
< 50 nM | CC(C)(C)OC(=O)N1CCC(COc2ccc(-n3ccc4cc(S(C)(=O)=O)ccc43)nc2)CC1 [Example-5, tert-Butyl-4-(((6-(5-(methylsulfonyl)-1H-indol-1-yl)pyridin-3-yl)oxy)methyl)piperidine-1-carboxylate]
< 50 nM | CCc1cnc(N2CCC(COc3ccc(-n4ccc5cc(S(C)(=O)=O)ccc54)nc3)CC2)nc1 [Example-6, 1-(5-((1-(5-Ethylpyrimidin-2-yl)piperidin-4-yl)methoxy)pyridin-2-yl)-5-(methylsulfonyl)-1H-indole]
< 50 nM | CCOC(=O)Nc1ccc2c(ccn2-c2ccc(OC3CCN(C(=O)OC(C)(C)C)CC3)cn2)c1 [Example-8, tert-Butyl-4-((6-(5-((ethoxycarbonyl)amino)-1H-indol-1-yl)pyridin-3-yl)oxy)piperidine-1-carboxylate]
< 50 nM | CCOC(=O)Nc1ccc2c(ccn2-c2ccc(OC3CCN(c4ncc(CC)cn4)CC3)cn2)c1 [Example-9, Ethyl(1-(5-((1-(5-ethylpyrimidin-2-yl)piperidin-4-yl)oxy)pyridin-2-yl)-1H-indol-5-yl)carbamate]
< 50 nM | CCc1cnc(N2CCC(Oc3ccc(-n4ccc5cc(S(=O)(=O)CC)ccc54)nc3)CC2)nc1 [Example-11, 1-(5-((1-(5-Ethylpyrimidin-2-yl)piperidin-4-yl)oxy)pyridin-2-yl)-5-(ethylsulfonyl)-1H-indole]
< 50 nM | CC(C)(F)CN1CCC(Oc2ccc(-n3ccc4cc(S(C)(=O)=O)ccc43)nc2)CC1 [Example-14, 1-(5-((1-(2-Fluoro-2-methylpropyl)piperidin-4-yl)oxy)pyridin-2-yl)-5-(methylsulfonyl)-1H-indole]
< 50 nM | CCc1cnc(N2CCC(Nc3ccc(-n4ccc5cc(C(=O)N(C)C)ccc54)nc3)CC2)nc1 [Example-22, 1-(5-((1-(5-Ethylpyrimidin-2-yl)piperidin-4-yl)amino)pyridin-2-yl)-N,N-dimethyl-1H-indole-5-carboxamide]
